Laboratory results published in publication PMC8023571, “Multiple Applications of a Novel Biarsenical Imaging Probe in Fluorescence and PET Imaging of Melanoma” (Bioconjugate Chemistry, 2021).

Key:
[1] = system: Cys-Cys-Pro-Gly-Cys-Cys (CCPGCC) sequence; conditions: four As-S bonds with CCPGCC; cited from earlier work
Text: In 1998, Griffin et al. described a system for fluorescent imaging using a biarsenical fluorescein analogue system now widely known as FlAsH.[6] This system relied on a reversible soft Lewis acid–base reaction between As(III) and S(-II) of cysteine. […] Since this sequence is uncommon in natural proteins, it requires installation via genetic alteration of the organism where the protein is expressed; in small peptides, it can be introduced during chemical synthesis. However, as ...

[2] = PET measurement of organ distribution in a nonhuman primate; format: in vivo, cynomolgus monkey; conditions: i.v.; NHP
Method: Second, high background affinity to any organ would severely hamper protein imaging in that organ. In order to test if 1 fulfilled these prerequisites, a […] dynamic PET measurement was performed after an intravenous injection of [^11C]CH3-1, with the upper body of a nonhuman primate subject (NHP) in the field of view. […] The high radioactivity in the liver and the low uptake in the brain likely prohibits the use of 1 for pretargeting in these organs. […] Blood samples were taken at multiple time points during the NHP PET measurements for the purpose of analyzing radiolabeled metabolites in plasma.
Figure 3 (a) Summation PET image of NHP showing the distribution of [^11C]CH3-1 from 3 to 60 min after intravenous injection. (b) Time–activity curves showing organ distribution following intravenous injection of [^11C]CH3-1.
Image- and Statistical Analysis
The acquired list mode data was reconstructed into […] (93 min scan = 4x10 s, 4x20 s, 4x60 s, 7x180 s, 11x360 s). The image reconstruction was made with a fully 3-dimensional maximum-likelihood expectation maximization algorithm (MLEM) with 20 iterations, without scatter and attenuation correction. […] The regional uptake values were expressed as standard uptake value (SUV), which normalizes for injected radioactivity and body weight. […]

Compound: O=C(O)c1ccccc1-c1c2ccc(=O)c([As]3SCCS3)c-2oc2c([As]3SCCS3)c(O)ccc12 [FlAsH]
- binding constant [1]: high binding constant

Compound: O=c1cc2oc3c([As]4SCCS4)c(O)ccc3c(-c3ccc(F)cc3)c-2cc1[As]1SCCS1 [compound 1]
- background radioactivity in lungs and heart [2]: intermediate background radioactivity
